Consider 104 molecules from PubChem BioAssay AID1996.

Values after ≈ are worked out from the molar mass of the structure shown. Bounds are passed on as bounds.

One may read the kinetic solubility as solubility judged after dilution from a stock solution rather than from solid.

For this data set the following is noted: buffer; pH 7.4; 200.0 µM.
Take `COc1cccc(NC(=O)COC(=O)CC2CC3CCC2C3)c1` (centres undefined): the kinetic solubility came out at 24.1 µg/mL (≈ 75.9 µM). For `C/C(=N/NC(=O)c1ccncc1)c1ccc2c(c1)OCO2`, the kinetic solubility was over 42.5 µg/mL. The same measure for `O=C(O)COCC(=O)Nc1ccc(OCCc2ccccc2)cc1`: 45.4 µg/mL (≈ 138 µM).

Turning to `Cc1ccc(C(=O)NCC(=O)N2CCCCCCC2)cc1`, the solubility (kinetic) stood at 42.3 µg/mL (≈ 147 µM). `Cc1cccc(NC(=S)NCCc2ccc(Cl)cc2)c1C`: the solubility (kinetic) was determined as 0.6 µg/mL (≈ 1.88 µM).

As for `O=C(NCCc1ccc(Cl)cc1)C1COc2ccccc2O1` (centres undefined), the solubility (kinetic) was determined as 5.5 µg/mL (≈ 17.3 µM). In turn, `Nc1cc(C(F)(F)F)ccc1NCCc1ccccn1` displayed a solubility (kinetic) of 36.8 µg/mL (≈ 131 µM).

The molecule `COc1cccc(/C=C/c2nc(C#N)c(NCC(C)C)o2)c1` gave a solubility (kinetic) of 0.4 µg/mL (≈ 1.35 µM). Under `Nc1ccc(C(=O)CC(=O)Nc2ccc(Cl)cc2)cc1` stands 14.3 µg/mL (≈ 49.5 µM); under `CN(Cc1cccs1)C(=O)COc1cccc2c1OC(C)(C)C2`, over 49.7 µg/mL. The same measure for `CC(=O)Nc1nonc1NC(=O)COc1ccccc1`: over 41.4 µg/mL; for `CC#C[C@]1(O)CC[C@H]2[C@@H]3CCC4=CC(=O)CCC4=C3[C@@H](c3ccc(N(C)C)cc3)C[C@@]21C`: 7 µg/mL (≈ 16.3 µM); for `O=S(=O)(/C=C/c1ccccc1)N1CCOCC1`: over 38 µg/mL. As for `CN1CCN(CCCNC(=O)Nc2ccc([N+](=O)[O-])cc2)CC1`, the kinetic solubility turned out to be 44.8 µg/mL (≈ 139 µM). The same measure for `O=[N+]([O-])c1c(NCCO)cc(N2CCCCCC2)c2nonc12`: 40.5 µg/mL (≈ 126 µM).

`COc1ccc(C(=O)Nc2cnccn2)cc1[N+](=O)[O-]` gave a solubility (kinetic) of 13.9 µg/mL (≈ 50.7 µM). This solubility kinetic is about 2.9-fold lower than that of the molecule before.

`CCOC(=O)C1=C(COC(=O)c2ccc([N+](=O)[O-])s2)NC(=O)NC1C` (centres undefined) returned a solubility (kinetic) of over 55.4 µg/mL. The same measure for `CN(C)/C=N/c1ncc(C(=O)OC(C)(C)C)s1`: over 38.3 µg/mL. Molecule `O=C(NC(=S)Nc1ccc([N+](=O)[O-])cc1O)C1CCCCC1` gave a solubility (kinetic) of 3.5 µg/mL (≈ 10.8 µM). Under `NS(=O)(=O)c1ccc(S(=O)(=O)N2CCN(C3CCCC3)CC2)cc1` stands 47.8 µg/mL (≈ 128 µM); under `CCOC(=O)c1[nH]cnc1C(=O)Nc1ccc(C)cc1`, 4.9 µg/mL (≈ 17.9 µM).

On to `O=C(Oc1ccc(Cl)cc1)N1CCOCC1`, for which the solubility (kinetic) is over 36.3 µg/mL.

Take `O=S(=O)(Nc1cccc(CCc2ccccn2)c1)c1cc(Cl)ccc1Cl`: the solubility (kinetic) was determined as 9.2 µg/mL (≈ 22.6 µM). In turn, `CCC(=O)N1CCN=C1SCc1cccc(C(F)(F)F)c1` came in with a solubility (kinetic) of 40.8 µg/mL (≈ 129 µM). The same measure for `Cc1cccc(CC2CC(=O)N(c3ccc([N+](=O)[O-])cc3)C2=O)c1` (centres undefined): 21 µg/mL (≈ 64.7 µM); for `Cc1cc(C)c(C(=O)Nc2cccc(F)c2)c(Cl)n1`: over 41.8 µg/mL; for `CC(C)c1ccc(NC(=O)C2CSC3(C)CCC(=O)N23)cc1` (centres undefined): 24.9 µg/mL (≈ 78.2 µM). The same measure for `O=C(NC1CCCC1)C1CCCN(C(=O)Nc2ccccc2)C1` (centres undefined): 43.9 µg/mL (≈ 139 µM); for `CCOC(=O)C1CCCN(S(=O)(=O)c2ccc(NC(C)=O)cc2)C1` (centres undefined): over 53.2 µg/mL; for `O=C(c1cc(-c2ccc(O)cc2)on1)N1CCCC1`: over 38.7 µg/mL. Under `Cc1nc(-c2ccc(-c3ccon3)s2)no1` stands 16.6 µg/mL (≈ 71.2 µM); under `Cc1ccccc1OCC(O)CN1CCCCC1.Cl` (centres undefined), over 42.9 µg/mL.

Molecule `CC(=O)c1c(-c2ccccc2)c2cc([N+](=O)[O-])ccc2[nH]c1=O` registered a solubility (kinetic) of 16.3 µg/mL (≈ 52.9 µM). As for `CCOc1ccc(CCNC(=O)COC(=O)c2ccncc2)cc1OCC`, the solubility (kinetic) is over 55.9 µg/mL. For `CC(C)Nc1nc(N)c(C(=O)C23CC4CC(CC(C4)C2)C3)s1`, the solubility (kinetic) was determined as 0.3 µg/mL (≈ 0.939 µM). Molecule `CSc1nc2ncnc(N)c2[nH]1` had a solubility (kinetic) of over 27.2 µg/mL. The molecule `CCCCCNC(=O)c1ccc2c(c1)ncn2-c1ccc(OC)cc1` came in with a solubility (kinetic) of 26.9 µg/mL (≈ 79.7 µM). Under `Cc1ccc(-c2ccc(CO)o2)cc1N` stands over 30.5 µg/mL. The same measure for `CCOc1ccc(S(=O)(=O)NC2CCCC2)cc1`: 18.3 µg/mL (≈ 67.9 µM); for `COc1ccc(-c2nc(C)ncc2-c2ccccc2)c(O)c1`: 6.4 µg/mL (≈ 21.9 µM). Under `Cc1cccc(C)c1OCCCn1ccnc1` stands 20.1 µg/mL (≈ 87.3 µM); under `CCN1CCN(S(=O)(=O)c2ccc(OC)cc2)CC1`, 36.8 µg/mL (≈ 129 µM). `N#Cc1cccc(NC(=O)CC2CCCC2)c1`: the kinetic solubility was determined as 33.1 µg/mL (≈ 145 µM).

For the molecule `CN1CCN(c2oc(Cc3cccc4ccccc34)nc2C#N)CC1`, the kinetic solubility is 43.5 µg/mL (≈ 131 µM). The solubility kinetic values of the last two molecules are within 1.5-fold of each other. The same measure for `CCN=C(NCC)SC1CC(=O)N(CCc2ccccc2)C1=O` (centres undefined): 36.3 µg/mL (≈ 109 µM); for `Cc1nc(SCC(=O)Nc2ccc(S(=O)(=O)N3CCOCC3)cc2)c2c(C)c(C)sc2n1`: 7.3 µg/mL (≈ 14.8 µM).

Regarding `Cc1cccc(C)c1NC(=O)CNC(=O)C1CCCC1`, the kinetic solubility was over 41.2 µg/mL.

In turn, `N#Cc1ccc(NCC(=O)Nc2ccc3c(c2)OCCO3)cc1` displayed a kinetic solubility of 29.6 µg/mL (≈ 95.7 µM). As for `CCC(=O)c1c[nH]c(C(=O)NCc2ccccc2OC)c1`, the solubility (kinetic) was determined as 2.8 µg/mL (≈ 9.78 µM). In the case of `O=c1oc2cccnc2n1CCS(=O)(=O)c1ccc(F)cc1`, the solubility (kinetic) stood at 45 µg/mL (≈ 140 µM). On to `Clc1nc(-c2ccccc2)ncc1Oc1ccccc1`, for which the kinetic solubility is under 0.3 µg/mL. The same measure for `CCN(Cc1ccccc1)C(=O)COC(=O)c1cnc(C)cn1`: 38 µg/mL (≈ 121 µM); for `COCCCNC(=S)N(Cc1ccccc1)Cc1ccc(F)cc1`: 22.1 µg/mL (≈ 63.8 µM); for `C=CCSc1nsc(NC(=O)Nc2ccc(F)cc2)n1`: 1.2 µg/mL (≈ 3.87 µM). Under `CCC(=O)Nc1ccc(NC(=O)c2cccc3ccccc23)cc1` stands under 0.3 µg/mL; under `O=C(O)C(=O)O.OC(CN1CCCC1)Cn1ccc2ccccc21` (centres undefined), over 50.2 µg/mL.

Molecule `O=C(COc1cccnc1[N+](=O)[O-])Nc1cc(Cl)ccc1Cl` displayed a solubility (kinetic) of 2.9 µg/mL (≈ 8.48 µM). Under `CSc1nc(N)nc(C(C)C)n1` stands over 27.6 µg/mL.

As to `c1coc(CNc2nc3ccccc3s2)c1`, the kinetic solubility was 32.3 µg/mL (≈ 140 µM).

For `Cn1cc(C(=O)C(=O)NC2CCCCC2)c2ccccc21`, the solubility (kinetic) is 31.8 µg/mL (≈ 112 µM).

Regarding `Cc1c(-c2ccc(Cl)cc2)[n+](=O)c(-c2ccccc2)cn1[O-]`, the solubility (kinetic) was over 46.9 µg/mL. Under `Cl.OCCN(CC#CC(O)(c1ccccc1)C1CCCCC1)CCO` (centres undefined) stands 53 µg/mL. `Cc1ccc(CNC(=S)NC2CCCCC2)cc1` yielded a solubility (kinetic) of 32.3 µg/mL (≈ 123 µM). Compared with the last molecule, the solubility kinetic is about 1.6-fold lower.

`c1cncc(C2OCC3(CO2)COC(c2cccnc2)OC3)c1` (centres undefined) came in with a kinetic solubility of over 47.2 µg/mL. The same measure for `COC(=O)c1ccc(NC(=O)c2ccc3nsnc3c2)cc1`: 1.3 µg/mL (≈ 4.15 µM); for `OC(COc1ccc(Br)cc1)Cn1ccnc1` (centres undefined): 36.3 µg/mL (≈ 122 µM); for `Cc1ccc(C2=NN(CC(=O)NCCC(C)C)C(=O)CC2)cc1`: over 47.3 µg/mL. Under `O=C(COC(=O)CC1CCCC1)Nc1ccc(OC(F)F)cc1` stands 42.1 µg/mL (≈ 129 µM); under `CC(=O)c1cccc(NC(=O)CSc2nc3ccccc3c(=O)n2CCCN2CCOCC2)c1`, over 72.1 µg/mL; under `Cl.c1ccc(OCC2CCNCC2)nc1`, 33.7 µg/mL. The same measure for `CC1CCCC(NC(=O)COC(=O)/C=C/c2ccc([N+](=O)[O-])cc2)C1C` (centres undefined): 4.8 µg/mL (≈ 13.3 µM); for `COC(=O)CN(c1cccc(C)c1)S(=O)(=O)c1ccccc1`: 41.7 µg/mL (≈ 131 µM). For the molecule `Nc1ccccc1C(=O)Nc1cccc2ccccc12`, the kinetic solubility was 24.7 µg/mL (≈ 94.2 µM). Compared with the last molecule, the solubility kinetic is about 1.7-fold lower. On to `O=C(CSC(=S)N1CCCC1)Nc1cc2c(cc1Br)OCCO2`, for which the solubility (kinetic) was under 0.4 µg/mL. The same measure for `Cc1cccc(C2N=C(N)Nc3nc4ccccc4n32)c1` (centres undefined): 34.3 µg/mL (≈ 124 µM).

For the molecule `Cl.OCCNCCNCc1ccccc1OCc1ccccc1`, the kinetic solubility is over 50.5 µg/mL. `O=c1[nH]c(Cc2cccc(C(F)(F)F)c2)nc2ccccc12` displayed a solubility (kinetic) of under 0.3 µg/mL.

In turn, `O=C(NCc1ccccn1)Nc1ccc(Br)cc1` gave a solubility (kinetic) of 14.9 µg/mL (≈ 48.7 µM). `CC(=O)c1ccc(NC(=O)c2cnsn2)cc1` gave a solubility (kinetic) of 29.1 µg/mL (≈ 118 µM). The same measure for `COc1cccc(CSc2nc(N)cc(N)n2)c1`: 28.6 µg/mL (≈ 109 µM).

`Cc1ccnc(NC(=O)CSc2ccccn2)c1` displayed a solubility (kinetic) of 36.7 µg/mL (≈ 142 µM).

Molecule `Cc1[nH]c2ccccc2c1C(=O)C(=O)N1CCOCC1` returned a kinetic solubility of over 40.8 µg/mL. The same measure for `Cc1cc(C)c2c(=O)cc(C(F)(F)F)oc2n1`: 17.3 µg/mL (≈ 71.1 µM); for `O=c1[nH]c2ccc(NC(=S)Nc3ccc(F)cc3)cc2[nH]1`: over 45.3 µg/mL; for `CCCCN(CC(=O)NCc1ccc(F)cc1)C(=O)c1ccco1`: 48.5 µg/mL (≈ 146 µM).

`Cc1ccc(NC(=O)CSc2ccc3c(c2)OCCO3)c(O)c1` gave a solubility (kinetic) of 36.9 µg/mL (≈ 111 µM).

Regarding `CC(C)(Oc1ccc(Cl)cc1)C(=O)O/N=C(\N)c1ccncc1`, the solubility (kinetic) came to 34.3 µg/mL (≈ 103 µM). This solubility kinetic and that of the molecule before are within 1.5-fold of each other. `COc1ccc(NC(=O)COC(=O)C23CC4CC(CC(O)(C4)C2)C3)cc1Cl` showed a solubility (kinetic) of over 59.1 µg/mL. Regarding `CCc1ccc(N2CC(C(=O)N3CCCC3)CC2=O)cc1` (centres undefined), the solubility (kinetic) stood at 35.2 µg/mL (≈ 123 µM). Under `CCCn1c(=O)c(C(=O)NCc2ccco2)c(O)c2ccccc21` stands under 0.3 µg/mL. The same measure for `COc1ccccc1OCCC(=O)OCC(=O)Nc1ccc2c(c1)OCCO2`: 55.8 µg/mL (≈ 144 µM).

In the case of `O=c1cnnc(Nc2ccccc2F)[nH]1`, the solubility (kinetic) was over 30.9 µg/mL. Under `O=C(NCC(=O)N1CCN(c2ccc([N+](=O)[O-])cc2)CC1)c1ccco1` stands 11.4 µg/mL (≈ 31.8 µM). As to `COCCNC(=O)NC(=O)CSc1nc(C)c(C)c(C)n1`, the solubility (kinetic) was over 46.9 µg/mL.

Take `CCCCCOc1ccc(C(=O)CCC(=O)N2CCCC2)cc1`: the kinetic solubility is over 47.6 µg/mL.

On to `O=C(c1cccc(NS(=O)(=O)c2cccc(F)c2)c1)N1CCCC1`, for which the solubility (kinetic) was 51 µg/mL (≈ 146 µM). Under `CCc1cc(C(=O)c2ccc(OC)cc2)c(NC(=O)CN2CCCCC2)s1` stands under 0.4 µg/mL. Under `CN1CCN(C(=S)c2cn(Cc3cccc(F)c3)c3ccccc23)CC1` stands 28 µg/mL (≈ 76.2 µM); under `NC1=NC(=Nc2ccc(S(N)(=O)=O)cc2)c2ccccc21`, over 45.1 µg/mL; under `C=CCN1C(=O)CSC1=Nc1ccc(C(=O)O)cc1`, over 41.4 µg/mL.

As to `COc1ccc(NC(=O)CN(C)CC(=O)NCC2CCCCC2)cc1`, the solubility (kinetic) is over 52.1 µg/mL. As to `COc1ccc(NC(=S)NCCc2ccccc2)c(C)c1`, the solubility (kinetic) worked out at 8.5 µg/mL (≈ 28.3 µM). The same measure for `CC1CC(NC(=O)/C=C/C(=O)O)CC(C)(C)C1` (centres undefined): over 35.9 µg/mL; for `O=C(NCCN1CCCCC1)Nc1ccc(F)cc1F`: over 42.5 µg/mL.
